The text below walks through data of ChEMBL document CHEMBL1201862, “PubChem BioAssay data set” (2004).

The structures appear in SMILES notation. Several values for one entry are separate records, joined by “and”; a condition that tells them apart may be missing. Equal entries are not always repeated. Activity calls are given as the source filed them.

For assay [1], the target named is T1, Insulin-degrading enzyme (Homo sapiens, UniProt P14735).
T1 sequence (P14735 whole entry): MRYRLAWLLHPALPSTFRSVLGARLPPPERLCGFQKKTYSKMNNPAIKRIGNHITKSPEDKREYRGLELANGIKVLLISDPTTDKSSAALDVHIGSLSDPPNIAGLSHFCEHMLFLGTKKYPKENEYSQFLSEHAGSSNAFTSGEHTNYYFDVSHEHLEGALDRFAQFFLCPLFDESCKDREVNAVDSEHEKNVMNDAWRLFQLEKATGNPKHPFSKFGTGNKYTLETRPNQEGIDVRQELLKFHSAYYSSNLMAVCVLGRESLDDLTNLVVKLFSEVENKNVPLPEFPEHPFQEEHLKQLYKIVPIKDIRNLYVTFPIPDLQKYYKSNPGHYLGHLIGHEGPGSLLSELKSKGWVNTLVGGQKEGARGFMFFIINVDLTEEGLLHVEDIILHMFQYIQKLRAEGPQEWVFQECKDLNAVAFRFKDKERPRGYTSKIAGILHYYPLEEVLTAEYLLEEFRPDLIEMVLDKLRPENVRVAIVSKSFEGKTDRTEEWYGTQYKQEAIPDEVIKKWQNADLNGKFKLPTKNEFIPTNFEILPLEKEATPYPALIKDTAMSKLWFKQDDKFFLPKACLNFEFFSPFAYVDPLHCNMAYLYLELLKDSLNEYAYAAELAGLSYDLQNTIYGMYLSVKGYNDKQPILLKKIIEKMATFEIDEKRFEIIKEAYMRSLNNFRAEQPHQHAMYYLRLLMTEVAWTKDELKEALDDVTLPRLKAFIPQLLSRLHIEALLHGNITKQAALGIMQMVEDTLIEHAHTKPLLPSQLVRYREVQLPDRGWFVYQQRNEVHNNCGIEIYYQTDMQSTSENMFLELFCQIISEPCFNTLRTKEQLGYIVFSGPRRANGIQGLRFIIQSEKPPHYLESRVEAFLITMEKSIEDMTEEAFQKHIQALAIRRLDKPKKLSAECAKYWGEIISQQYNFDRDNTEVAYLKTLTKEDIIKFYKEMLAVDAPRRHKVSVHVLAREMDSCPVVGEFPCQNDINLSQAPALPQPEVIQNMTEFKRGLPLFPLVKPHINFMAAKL
Put plainly: cellular IDE activation of Abeta substrate cleavage – fluorescence polarization, HEK cells, dose response (AID 588439). Type of assay: functional, cell-based. (Fluorescence polarisation rises when a labelled molecule tumbles more slowly, as on binding a larger partner.)

The test system of assay [2] is HEK293. Put plainly: optical interference in Abeta FP readout, dose response, artefact control for IDE activator project, biochemical, fluorescence polarization (AID 588442). Type of assay: functional, cell-based. Conditions: Homo sapiens.
The target in assay [3] is T1, Insulin-degrading enzyme. Put plainly: recombinant IDE activation, cell-free – biochemical, fluorescence polarization, counter-screen for IDE activator project, dose response (AID 588681).
In assay [4] the test system is HEK293. The experiment in a line: membrane integrity loss in HEK cells – cell-based, fluorescence, cytotoxicity control for IDE activator project, dose response (AID 588440).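 Further: cytotoxicity by LDH release measuring loss of membrane integrity.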 It counts as functional. As to conditions: Homo sapiens.
Assay [5] can be described thus: viability of uninfected HEp-2 cells – cell-based, HTS, cytotoxicity control for RSV inhibitor project, dose response (AID 2410). Type of assay: functional. As to conditions: human respiratory syncytial virus.
Assay [6] deals with Vero. Put plainly: cells. It counts as functional. As to conditions: Chlorocebus sabaeus.
The subject of assay [7] is Vero. Put plainly: cells. It counts as functional, cell-based. As to conditions: Chlorocebus sabaeus.
The target in assay [8] is T2, Voltage-gated N-type calcium channel alpha-1B subunit/Amyloid beta A4 precursor protein-binding family A member 1 (Homo sapiens, UniProt Q00975+Q02410). The experiment in a line: disruptors of Mint-PDZ/N-type channel peptide interaction – biochemical, HTRF, set 2, SAR follow-up (AID 434980). Type of assay: functional. (In general: TR-FRET usually uses a lanthanide donor and a delayed reading to cut background.)

Assay [9] addresses T2, Voltage-gated N-type calcium channel alpha-1B subunit/Amyloid beta A4 precursor protein-binding family A member 1. Put plainly: disruptors of Mint-PDZ/N-type channel peptide interaction – biochemical, HTRF, SAR follow-up (AID 2489). Type of assay: functional.
For assay [10], the target named is Potassium voltage-gated channel subfamily KQT member 2 (Rattus norvegicus, UniProt O88943). The experiment in a line: blockers of KCNQ2 channel current – cell-based, automated electrophysiology, set II, rat KCNQ2, dose response (AID 588637). Type of assay: functional.
The target in assay [11] is T3, Carboxy-terminal domain RNA polymerase II polypeptide A small phosphatase 1 (Homo sapiens, UniProt Q9GZU7).
T3 sequence (Q9GZU7 whole entry): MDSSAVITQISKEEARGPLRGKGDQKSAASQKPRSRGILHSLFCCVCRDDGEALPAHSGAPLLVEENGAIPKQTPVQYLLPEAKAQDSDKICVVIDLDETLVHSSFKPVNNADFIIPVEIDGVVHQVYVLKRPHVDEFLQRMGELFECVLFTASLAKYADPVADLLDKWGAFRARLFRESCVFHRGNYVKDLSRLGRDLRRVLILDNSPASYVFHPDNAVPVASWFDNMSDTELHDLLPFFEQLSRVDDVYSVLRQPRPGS
The experiment in a line: CTDSP1 inhibitors, concentration-response, biochemical, absorbance readout, ultra-high-throughput screen actives (AID 540297). Type of assay: functional.

The target of the next assay is SUMO E1/E2 (Homo sapiens, UniProt P63279+Q9UBE0+Q9UBT2). The experiment in a line: SAR analysis of SUMOylation using HTRF in an in-Vitro dose response assay. [Related pubchem assays (depositor defined):AID2006, AID2011, AID2018, AID2069, AID2658]. Type of assay: functional.
Assay [12] deals with T4, Apoptotic protease-activating factor 1 (Homo sapiens, UniProt O14727).
T4 sequence (O14727 whole entry): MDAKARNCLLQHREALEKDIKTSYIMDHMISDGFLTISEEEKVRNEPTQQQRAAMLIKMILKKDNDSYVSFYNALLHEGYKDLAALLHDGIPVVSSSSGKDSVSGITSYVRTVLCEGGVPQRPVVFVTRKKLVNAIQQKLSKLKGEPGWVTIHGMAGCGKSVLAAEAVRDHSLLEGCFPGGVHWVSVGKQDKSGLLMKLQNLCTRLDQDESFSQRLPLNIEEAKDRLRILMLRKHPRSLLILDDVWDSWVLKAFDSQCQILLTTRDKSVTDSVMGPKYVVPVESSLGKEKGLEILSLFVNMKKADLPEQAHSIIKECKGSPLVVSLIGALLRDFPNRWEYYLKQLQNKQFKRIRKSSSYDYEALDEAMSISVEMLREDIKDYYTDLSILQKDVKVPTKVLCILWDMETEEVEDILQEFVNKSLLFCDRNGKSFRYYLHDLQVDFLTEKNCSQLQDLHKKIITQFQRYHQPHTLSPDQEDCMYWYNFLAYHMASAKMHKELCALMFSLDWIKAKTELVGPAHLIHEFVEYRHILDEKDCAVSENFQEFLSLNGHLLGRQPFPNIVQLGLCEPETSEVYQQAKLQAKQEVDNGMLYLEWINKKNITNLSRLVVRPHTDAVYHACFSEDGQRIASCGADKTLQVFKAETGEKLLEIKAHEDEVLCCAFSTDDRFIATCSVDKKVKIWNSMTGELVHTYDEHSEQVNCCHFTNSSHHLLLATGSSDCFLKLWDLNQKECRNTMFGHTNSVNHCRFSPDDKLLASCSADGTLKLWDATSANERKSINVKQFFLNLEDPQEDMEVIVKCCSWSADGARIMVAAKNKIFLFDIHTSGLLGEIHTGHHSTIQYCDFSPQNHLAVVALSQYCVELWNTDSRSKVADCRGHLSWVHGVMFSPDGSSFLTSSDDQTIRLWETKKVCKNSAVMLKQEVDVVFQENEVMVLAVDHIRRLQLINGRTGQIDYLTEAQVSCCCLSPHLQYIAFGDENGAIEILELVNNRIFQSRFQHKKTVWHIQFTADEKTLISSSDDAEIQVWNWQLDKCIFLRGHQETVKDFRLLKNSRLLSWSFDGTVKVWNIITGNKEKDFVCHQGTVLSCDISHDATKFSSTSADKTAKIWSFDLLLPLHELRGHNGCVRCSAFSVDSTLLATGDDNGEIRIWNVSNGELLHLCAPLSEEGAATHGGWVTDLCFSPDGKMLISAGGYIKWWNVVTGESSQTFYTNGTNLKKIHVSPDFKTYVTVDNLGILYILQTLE
The experiment in a line: SAR analysis of small molecule Activators of Apaf-1 in a Fluorescent assay. It counts as functional. As to conditions: read-out: EC50_Mean.

In another assay the target is Activin receptor type-1 (Homo sapiens, UniProt Q04771). Put plainly: Navigating the Kinome. Panel member name: ACVR1. Type of assay: functional.
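Wherever EC50 Mean is given: caspase-3 cleavage of fluorogenic Rh110 DEVD substrate downstream of apoptosome activation.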

T2 sequence (Q00975 whole entry): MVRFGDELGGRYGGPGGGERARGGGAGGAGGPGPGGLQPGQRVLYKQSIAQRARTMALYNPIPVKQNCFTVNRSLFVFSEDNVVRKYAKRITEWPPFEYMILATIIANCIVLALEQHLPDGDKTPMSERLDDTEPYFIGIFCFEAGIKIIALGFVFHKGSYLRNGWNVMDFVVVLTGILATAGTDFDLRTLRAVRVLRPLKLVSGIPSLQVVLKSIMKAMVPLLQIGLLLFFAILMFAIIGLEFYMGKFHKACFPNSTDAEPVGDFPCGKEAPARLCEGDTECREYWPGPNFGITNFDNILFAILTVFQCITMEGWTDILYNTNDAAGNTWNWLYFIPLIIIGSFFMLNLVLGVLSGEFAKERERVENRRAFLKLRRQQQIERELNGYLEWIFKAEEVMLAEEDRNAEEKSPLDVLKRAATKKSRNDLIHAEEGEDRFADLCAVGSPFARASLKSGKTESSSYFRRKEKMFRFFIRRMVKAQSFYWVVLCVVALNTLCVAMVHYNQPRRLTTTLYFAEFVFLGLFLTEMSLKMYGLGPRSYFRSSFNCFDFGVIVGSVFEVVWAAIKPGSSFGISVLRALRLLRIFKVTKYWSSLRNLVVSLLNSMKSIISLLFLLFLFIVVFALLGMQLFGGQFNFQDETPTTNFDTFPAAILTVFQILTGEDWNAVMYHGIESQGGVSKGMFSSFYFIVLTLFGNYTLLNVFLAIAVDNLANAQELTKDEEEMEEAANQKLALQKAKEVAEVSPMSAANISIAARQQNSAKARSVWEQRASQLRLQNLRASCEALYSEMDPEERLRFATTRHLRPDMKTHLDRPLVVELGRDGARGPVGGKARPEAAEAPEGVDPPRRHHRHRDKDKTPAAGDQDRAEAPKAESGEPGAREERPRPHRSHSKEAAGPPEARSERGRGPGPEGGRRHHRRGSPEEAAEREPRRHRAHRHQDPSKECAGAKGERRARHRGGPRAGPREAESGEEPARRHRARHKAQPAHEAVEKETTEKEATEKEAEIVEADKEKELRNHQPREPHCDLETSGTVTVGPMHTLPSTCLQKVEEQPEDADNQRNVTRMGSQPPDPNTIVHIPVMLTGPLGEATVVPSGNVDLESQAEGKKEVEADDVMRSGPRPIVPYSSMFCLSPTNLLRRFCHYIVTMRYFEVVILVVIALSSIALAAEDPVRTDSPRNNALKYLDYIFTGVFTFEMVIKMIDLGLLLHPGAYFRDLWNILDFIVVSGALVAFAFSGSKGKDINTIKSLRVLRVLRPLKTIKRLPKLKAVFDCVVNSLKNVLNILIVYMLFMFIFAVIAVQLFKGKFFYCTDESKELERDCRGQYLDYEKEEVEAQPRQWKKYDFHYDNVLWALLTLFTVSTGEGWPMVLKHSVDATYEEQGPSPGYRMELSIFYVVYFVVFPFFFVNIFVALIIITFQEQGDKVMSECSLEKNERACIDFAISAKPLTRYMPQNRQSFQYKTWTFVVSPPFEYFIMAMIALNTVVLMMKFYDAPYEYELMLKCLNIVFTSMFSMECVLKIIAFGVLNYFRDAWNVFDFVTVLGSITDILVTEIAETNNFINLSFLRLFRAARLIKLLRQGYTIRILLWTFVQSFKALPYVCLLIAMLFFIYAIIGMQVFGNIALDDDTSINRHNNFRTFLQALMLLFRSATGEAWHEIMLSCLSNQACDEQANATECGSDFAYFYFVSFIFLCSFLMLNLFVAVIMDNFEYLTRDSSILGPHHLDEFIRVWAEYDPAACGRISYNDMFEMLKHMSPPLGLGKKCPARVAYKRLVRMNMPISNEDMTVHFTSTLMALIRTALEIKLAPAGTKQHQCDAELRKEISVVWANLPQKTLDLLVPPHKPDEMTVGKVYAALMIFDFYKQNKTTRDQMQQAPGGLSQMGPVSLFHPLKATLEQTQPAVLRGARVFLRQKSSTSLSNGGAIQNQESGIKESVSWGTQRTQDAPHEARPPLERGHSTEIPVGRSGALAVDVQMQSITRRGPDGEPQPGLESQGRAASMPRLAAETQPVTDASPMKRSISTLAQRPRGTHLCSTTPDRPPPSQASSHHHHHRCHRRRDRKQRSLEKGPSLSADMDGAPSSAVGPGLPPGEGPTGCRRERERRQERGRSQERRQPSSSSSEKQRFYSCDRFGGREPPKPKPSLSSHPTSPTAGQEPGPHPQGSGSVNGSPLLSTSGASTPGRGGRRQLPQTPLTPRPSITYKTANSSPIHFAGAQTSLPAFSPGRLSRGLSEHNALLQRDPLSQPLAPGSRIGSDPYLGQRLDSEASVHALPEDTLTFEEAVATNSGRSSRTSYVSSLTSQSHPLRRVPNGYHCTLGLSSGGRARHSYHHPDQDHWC
T2 sequence (Q02410 whole entry): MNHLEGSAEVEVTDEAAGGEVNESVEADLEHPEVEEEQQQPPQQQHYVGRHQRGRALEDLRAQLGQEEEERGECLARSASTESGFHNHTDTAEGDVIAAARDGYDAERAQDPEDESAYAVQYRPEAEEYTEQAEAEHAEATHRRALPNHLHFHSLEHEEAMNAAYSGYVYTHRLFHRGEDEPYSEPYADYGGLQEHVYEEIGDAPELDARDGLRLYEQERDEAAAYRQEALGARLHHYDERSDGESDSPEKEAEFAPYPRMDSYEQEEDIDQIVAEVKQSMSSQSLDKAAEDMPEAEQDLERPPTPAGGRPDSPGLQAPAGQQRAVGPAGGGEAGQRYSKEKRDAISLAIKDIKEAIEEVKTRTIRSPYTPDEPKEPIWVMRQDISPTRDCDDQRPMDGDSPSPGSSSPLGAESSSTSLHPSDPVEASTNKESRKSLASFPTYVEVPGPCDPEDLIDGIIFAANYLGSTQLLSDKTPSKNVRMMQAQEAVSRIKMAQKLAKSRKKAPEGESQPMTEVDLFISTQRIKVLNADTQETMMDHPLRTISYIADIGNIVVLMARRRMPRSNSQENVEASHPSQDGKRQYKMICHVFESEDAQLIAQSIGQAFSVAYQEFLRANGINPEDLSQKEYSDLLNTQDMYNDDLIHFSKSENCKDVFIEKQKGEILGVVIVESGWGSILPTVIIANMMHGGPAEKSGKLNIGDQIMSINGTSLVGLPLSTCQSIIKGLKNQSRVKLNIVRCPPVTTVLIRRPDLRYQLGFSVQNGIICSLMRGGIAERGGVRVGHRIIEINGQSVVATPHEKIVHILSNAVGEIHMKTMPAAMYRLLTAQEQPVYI
Chain of SUMO E1/E2 (Q9UBE0 whole entry): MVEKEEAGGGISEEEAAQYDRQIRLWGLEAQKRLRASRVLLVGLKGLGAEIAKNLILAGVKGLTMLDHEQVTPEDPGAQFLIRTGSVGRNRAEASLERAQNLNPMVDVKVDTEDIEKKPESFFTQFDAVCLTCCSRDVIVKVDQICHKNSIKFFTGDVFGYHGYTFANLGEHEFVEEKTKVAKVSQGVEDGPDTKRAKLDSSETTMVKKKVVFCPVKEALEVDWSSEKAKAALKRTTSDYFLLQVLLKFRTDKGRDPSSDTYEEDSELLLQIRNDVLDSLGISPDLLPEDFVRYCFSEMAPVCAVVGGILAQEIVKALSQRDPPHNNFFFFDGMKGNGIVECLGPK
Chain of SUMO E1/E2 (Q9UBT2 whole entry): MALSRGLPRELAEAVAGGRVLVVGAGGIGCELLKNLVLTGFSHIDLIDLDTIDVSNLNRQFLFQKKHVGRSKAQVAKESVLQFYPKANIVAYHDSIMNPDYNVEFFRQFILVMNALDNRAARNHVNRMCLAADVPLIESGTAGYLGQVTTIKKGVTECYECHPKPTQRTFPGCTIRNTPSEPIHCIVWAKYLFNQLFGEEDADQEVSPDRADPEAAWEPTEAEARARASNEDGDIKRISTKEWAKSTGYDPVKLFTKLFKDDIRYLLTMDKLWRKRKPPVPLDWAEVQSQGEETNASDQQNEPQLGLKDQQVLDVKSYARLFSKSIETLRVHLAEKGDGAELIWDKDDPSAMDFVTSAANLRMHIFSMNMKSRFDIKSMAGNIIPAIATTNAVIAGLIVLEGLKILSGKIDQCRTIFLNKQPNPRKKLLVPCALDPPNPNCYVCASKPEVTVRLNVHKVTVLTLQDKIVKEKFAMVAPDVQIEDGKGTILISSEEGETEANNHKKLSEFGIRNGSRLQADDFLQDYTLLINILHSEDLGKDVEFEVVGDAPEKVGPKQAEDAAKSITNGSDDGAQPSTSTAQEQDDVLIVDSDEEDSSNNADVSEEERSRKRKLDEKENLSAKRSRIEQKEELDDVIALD
Chain of SUMO E1/E2 (P63279 whole entry): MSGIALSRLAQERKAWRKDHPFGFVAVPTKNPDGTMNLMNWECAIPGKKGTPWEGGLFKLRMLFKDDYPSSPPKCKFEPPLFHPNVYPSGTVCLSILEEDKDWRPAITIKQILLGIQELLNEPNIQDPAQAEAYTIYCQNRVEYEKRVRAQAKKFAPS
Chain of Activin receptor type-1 (Q04771 whole entry): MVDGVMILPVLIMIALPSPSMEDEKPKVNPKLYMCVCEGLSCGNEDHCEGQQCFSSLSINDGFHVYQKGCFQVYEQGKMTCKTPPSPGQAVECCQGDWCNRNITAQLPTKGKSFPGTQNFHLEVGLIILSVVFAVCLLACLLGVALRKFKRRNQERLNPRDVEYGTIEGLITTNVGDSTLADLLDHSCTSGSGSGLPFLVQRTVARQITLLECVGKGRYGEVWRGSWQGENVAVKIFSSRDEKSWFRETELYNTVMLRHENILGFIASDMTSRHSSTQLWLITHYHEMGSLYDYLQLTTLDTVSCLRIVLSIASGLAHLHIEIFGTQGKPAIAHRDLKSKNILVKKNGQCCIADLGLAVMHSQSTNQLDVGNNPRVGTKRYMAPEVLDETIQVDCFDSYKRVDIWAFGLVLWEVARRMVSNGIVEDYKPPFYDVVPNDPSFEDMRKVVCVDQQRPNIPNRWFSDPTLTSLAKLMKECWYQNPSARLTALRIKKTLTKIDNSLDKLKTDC

For `CCc1nnc(NS(=O)(=O)c2ccc(N/C=C3/C(=O)NC(=O)N(c4ccc(Cl)cc4)C3=O)cc2)s1`, the EC50 at Insulin-degrading enzyme [1], in the assay with HEK293 [2] and on Insulin-degrading enzyme [3] was > 54.7 µM (inactive) each time. Moreover, the IC50 – broadly, the midpoint of a concentration-inhibition curve – with HEK293 [4] is > 89.2 µM (inactive).

As to `O=C(O)c1ccccc1Nc1ccc([N+](=O)[O-])cc1`, the values for the CC50 (in assay [5]; with Vero [6]) were 8.65 µM (active) and > 25 µM (active), respectively. Also, the IC50 was 2.4 µM (active) in the assay “cells”, > 89.1 µM (inactive) with HEK293 [4] and 8.6 µM (active) in the assay on Vero [7]. The values for the EC50 at Insulin-degrading enzyme [1], in the assay with HEK293 [2] and on Insulin-degrading enzyme [3] were 7.99 µM (active), 6.88 µM (active) and 14 µM (inactive), respectively.

Consider `COc1ccc(CCNC(=O)c2cc(-c3ccco3)nc3ccccc23)cc1`, for which the IC50 in [8] is 12.8 µM (active) and > 56.8 µM (inactive); in [9], 17.3 µM (active) and > 56.8 µM (inactive); in assay [10], 4.08 µM (active); in [11], 4.22 µM (active); at SUMO E1/E2 it was 16.5 µM (active).

Regarding `CC(Cc1ccc2c(c1)OCO2)C(=O)O` (centres undefined), in assay [12], the EC50 was > 100 µM (inactive).

For the compound `O=C1Cc2c([nH]c3ccc([N+](=O)[O-])cc23)-c2ccccc2N1` [ALSTERPAULLONE], at Activin receptor type-1, the Ki (as a rule, a measure of affinity in units of concentration, obtained from inhibition or displacement) is 0.0631 µM (active).
